Assay results as given in publication PMC6152416, “Pharmacological and Toxicological Screening of Novel Benzimidazole-Morpholine Derivatives as Dual-Acting Inhibitors” (Molecules : A Journal of Synthetic Chemistry and Natural …, 2017).
Values after ≈ are worked out from the molar mass of the structure shown. Read-outs that look alike come from different tables or passages of the source.

What was measured:
[1] = tested on: Pseudomona aeuroginosa ATCC 27853; test: Antimicrobial broth microdilution (CLSI M07-A9); assay type: cell-based; details: Pseudomona aeuroginosa [sic] ATCC 27853
Protocol: Microbiological studies were performed according to CLSI reference M07-A9 broth microdilution method for bacterial strains and EUCAST definitive method EDef 7.1 for Candida species. Synthesized compounds were tested for their in vitro growth inhibitory activity against Escherichia coli ATCC 35218, Escherichia coli ATCC 25922, Staphylococcus aureus, ATCC 25923, Pseudomona aeuroginosa ATCC 27853, Enterococcus faecalis ATCC29212, Klebsiella pneumoniae ATCC700603 Listeria monocytogenes ATCC7644, Candida albicans ATCC90028, Candida glabrata ATCC 90030, Candida krusei ATCC 6258, Candida parapsilosis ATCC 22019.
The cultures were obtained from Mueller-Hinton broth (Difco) for the bacterial strains and the yeasts were maintained in Roswell Park Memorial Institute (RPMI) medium, after an overnight incubation at 37 °C for both. The inocula of the test microorganisms were adjusted to match an equivalent turbidity of a 0.5 McFarland standard, which was determined using a spectrophotometer; the final inoculum size was determined to be 0.5–2.5 × 10^5 cfu/mL for antibacterial and antifungal assays. The tests were carried out for both mediums at pH = 7 and two-fold serial dilutions were applied. The last well on the microplates, which was containing only the inoculated broth, was kept as control, and the last well with no growth of microorganism was recorded to represent the minimum inhibitory concentration (MIC50) in μg/mL. For both of the antibacterial and antifungal assays, the test compounds and reference drugs were firstly dissolved in DMSO, and further dilutions were performed to the desired concentrations of 1000, 500, 250, 125, 62.5, 31.25, 15.6, 7.8, 3.9 and 1.95 μg/mL using Mueller–Hinton broth and RPMI medium. The completed plates were incubated for 24 h, and at the end of the incubation, resazurin (20 µg/mL) was added into each well to control the growth in the wells. Final plates including microorganism strains were incubated for 2 h. MIC50 values were determined using microplate reader at […] wavelengths; MIC50 readings were performed twice for entire compounds. Chloramphenicol and ketoconazole were used as reference drugs.

[2] = target: AChE (Homo sapiens, UniProt P22303); assay type: biochemical
AChE, sequence (P22303 32-614): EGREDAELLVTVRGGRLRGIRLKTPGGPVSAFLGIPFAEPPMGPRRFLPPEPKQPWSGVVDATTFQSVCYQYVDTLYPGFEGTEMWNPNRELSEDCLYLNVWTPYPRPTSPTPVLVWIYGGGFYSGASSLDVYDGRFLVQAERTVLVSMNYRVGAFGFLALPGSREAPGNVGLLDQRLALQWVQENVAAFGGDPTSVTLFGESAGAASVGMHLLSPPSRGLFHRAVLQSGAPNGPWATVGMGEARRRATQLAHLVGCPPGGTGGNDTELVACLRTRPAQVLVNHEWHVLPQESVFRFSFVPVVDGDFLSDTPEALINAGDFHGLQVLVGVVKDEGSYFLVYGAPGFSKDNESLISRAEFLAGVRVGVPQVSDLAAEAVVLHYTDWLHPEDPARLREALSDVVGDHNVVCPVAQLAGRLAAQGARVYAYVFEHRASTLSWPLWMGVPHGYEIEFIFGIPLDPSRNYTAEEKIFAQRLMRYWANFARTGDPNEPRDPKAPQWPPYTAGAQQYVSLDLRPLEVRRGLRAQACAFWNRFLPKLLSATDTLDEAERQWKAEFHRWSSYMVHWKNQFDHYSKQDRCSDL
Protocol: Inhibition potency of the test compounds against AChE was determined using Ellman’s method. Enzyme solutions were prepared in gelatin solution (1%, w/v), at the concentration of 2.5 units/mL. […] AChE solution (20 µL/well) and test solution (20 µL/well) were added to phosphate buffer solution (140 µL/well, pH 8.0 ± 0.1), and incubated at 25 °C for 5 min. […] The production of the yellow anion was recorded by multimode microplate reader for 10 min at 412 nm. As a control, an identical solution of the enzyme without the inhibitor was processed. The control and the inhibitor readings were corrected with blank-readings. All processes were assayed in four independent determinations.

[3] = target: T1, human recombinant MAO-A (Homo sapiens, UniProt P21397); test: MAO inhibition assay (kynuramine, fluorimetric); assay type: biochemical
T1 sequence (P21397 1-527): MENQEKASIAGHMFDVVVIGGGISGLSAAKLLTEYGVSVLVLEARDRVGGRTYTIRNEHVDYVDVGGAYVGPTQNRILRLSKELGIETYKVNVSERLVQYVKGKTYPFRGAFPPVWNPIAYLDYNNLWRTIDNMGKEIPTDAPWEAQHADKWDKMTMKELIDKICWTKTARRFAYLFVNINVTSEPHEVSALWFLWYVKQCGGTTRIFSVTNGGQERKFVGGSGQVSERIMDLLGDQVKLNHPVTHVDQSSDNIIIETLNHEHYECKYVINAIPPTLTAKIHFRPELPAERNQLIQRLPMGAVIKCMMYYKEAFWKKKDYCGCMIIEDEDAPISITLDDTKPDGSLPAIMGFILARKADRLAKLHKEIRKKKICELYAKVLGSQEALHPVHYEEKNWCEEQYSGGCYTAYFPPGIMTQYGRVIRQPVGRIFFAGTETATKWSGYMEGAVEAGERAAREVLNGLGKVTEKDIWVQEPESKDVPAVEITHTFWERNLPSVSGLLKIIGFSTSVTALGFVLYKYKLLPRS
Protocol: (§1) Enzyme activity assays were performed according to the procedure reported by Matsumoto et al. with slight modifications. In order to prevent the destructive effect of light on MAO enzymes, the assays were performed in 96-well black plates. Phosphate buffer solution (0.1 M, pH = 7.4) was used for preparation of stock solutions (5 mg/mL) of both human recombinant MAO-A and MAO-B enzymes. […] The addition of the test compound solution was followed by addition of either MAO-A or MAO-B enzyme (50 μL/well) solutions. After 10 min of incubation at 37 °C, kynuramine (50 μL/well) was added and enzyme-substrate reaction was initiated. The plate was incubated for 20 min at 37 °C and then reaction was terminated by addition of 2 N NaOH (75 μL/well). The fluorimetric reads from the top was performed at 310 nm excitation and 380 nm emission wavelengths.

[4] = target: T2, human recombinant MAO-B (Homo sapiens, UniProt P27338); test: MAO inhibition assay (kynuramine, fluorimetric); assay type: biochemical
T2 sequence (P27338 1-520): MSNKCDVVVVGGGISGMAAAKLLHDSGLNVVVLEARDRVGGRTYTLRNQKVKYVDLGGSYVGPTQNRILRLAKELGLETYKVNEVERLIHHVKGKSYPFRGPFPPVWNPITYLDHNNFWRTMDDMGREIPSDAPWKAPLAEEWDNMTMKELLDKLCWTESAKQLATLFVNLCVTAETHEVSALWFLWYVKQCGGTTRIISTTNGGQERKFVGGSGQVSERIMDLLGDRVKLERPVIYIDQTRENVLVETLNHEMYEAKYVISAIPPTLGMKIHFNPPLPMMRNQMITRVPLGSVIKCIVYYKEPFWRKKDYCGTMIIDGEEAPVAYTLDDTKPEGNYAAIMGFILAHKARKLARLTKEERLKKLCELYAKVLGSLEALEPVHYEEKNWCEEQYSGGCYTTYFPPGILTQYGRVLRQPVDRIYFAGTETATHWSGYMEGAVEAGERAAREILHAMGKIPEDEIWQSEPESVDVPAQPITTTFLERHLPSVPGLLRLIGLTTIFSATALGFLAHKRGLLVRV
Protocol: as §1

[5] = target: T3, COX-2 (Homo sapiens, UniProt P35354); test: Fluorimetric COX-2 inhibition screening kit (BioVision); assay type: biochemical
T3 construct: purchased BioVision (Milpitas, CA, USA) K547-100
T3 sequence (P35354 18-604): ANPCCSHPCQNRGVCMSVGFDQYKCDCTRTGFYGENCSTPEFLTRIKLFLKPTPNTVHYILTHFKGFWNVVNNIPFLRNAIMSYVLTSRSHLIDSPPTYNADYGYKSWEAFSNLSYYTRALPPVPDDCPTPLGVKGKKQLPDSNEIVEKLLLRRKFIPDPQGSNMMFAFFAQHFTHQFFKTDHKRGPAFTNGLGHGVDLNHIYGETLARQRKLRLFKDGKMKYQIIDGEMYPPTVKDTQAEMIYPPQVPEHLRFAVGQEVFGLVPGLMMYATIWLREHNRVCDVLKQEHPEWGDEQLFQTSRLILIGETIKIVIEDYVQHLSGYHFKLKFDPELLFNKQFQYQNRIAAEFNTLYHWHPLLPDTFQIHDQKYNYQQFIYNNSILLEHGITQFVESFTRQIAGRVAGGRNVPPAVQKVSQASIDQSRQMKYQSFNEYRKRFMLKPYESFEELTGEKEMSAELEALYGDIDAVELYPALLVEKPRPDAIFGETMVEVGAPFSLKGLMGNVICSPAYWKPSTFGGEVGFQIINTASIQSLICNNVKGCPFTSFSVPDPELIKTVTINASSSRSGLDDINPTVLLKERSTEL
Protocol: (§2) Inhibitory potency of the compounds on COX-1 and COX-2 enzymes was determined by using fluorimetric COX-1 and COX-2 inhibition screening kits from BioVision (Milpitas, CA, USA). The experimental protocol as described in the guides provided by the supplier was followed. All of the pipetting were performed using a robotized system to increase speed, accuracy and precision. Fluorescence intensities of the samples were kinetically measured at 25 °C for 5–10 min by monitoring emissions at 587 nm after excitation at 535 nm. Two appropriate points (T1 and T2) in the linear range of the plot were chosen and the corresponding fluorescence values (RFU1 and RFU2) were obtained. The slope for all samples including Enzyme Control (EC) was calculated by dividing the net ΔRFU (RFU2 − RFU1) values by the time ΔT (T2 − T1). Percentage of relative inhibition was calculated by using the following equation:% Relative inhibition = (Slope of EC − Slope of S/Slope of EC) × 100 where S is the term representing the tested compound [51, 52]. […] The IC50 values were calculated using the plots of the enzyme activity against concentrations by applying regression analyses.

[6] = target: T4, COX-1 (Ovis aries, UniProt P05979); test: Fluorimetric COX-1 inhibition screening kit (BioVision); assay type: biochemical
T4 construct: purchased BioVision (Milpitas, CA, USA) K548-100
T4 sequence (P05979 25-600): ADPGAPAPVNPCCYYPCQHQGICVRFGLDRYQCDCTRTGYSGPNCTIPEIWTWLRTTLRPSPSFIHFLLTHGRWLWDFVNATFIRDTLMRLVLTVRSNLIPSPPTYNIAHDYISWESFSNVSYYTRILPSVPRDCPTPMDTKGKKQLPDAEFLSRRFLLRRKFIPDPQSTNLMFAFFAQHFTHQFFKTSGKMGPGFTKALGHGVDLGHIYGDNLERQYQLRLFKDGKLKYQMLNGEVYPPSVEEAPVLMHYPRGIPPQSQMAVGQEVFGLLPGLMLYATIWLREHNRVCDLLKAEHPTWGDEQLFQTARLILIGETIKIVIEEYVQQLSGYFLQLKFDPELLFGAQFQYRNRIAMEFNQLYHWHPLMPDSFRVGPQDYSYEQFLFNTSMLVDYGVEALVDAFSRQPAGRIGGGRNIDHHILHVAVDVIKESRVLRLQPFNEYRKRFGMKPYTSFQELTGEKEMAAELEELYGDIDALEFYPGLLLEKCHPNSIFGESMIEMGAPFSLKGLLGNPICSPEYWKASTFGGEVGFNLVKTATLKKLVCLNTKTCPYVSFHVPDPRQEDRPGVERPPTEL
Protocol: as §2

Row | SMILES | AChE Inhibition (%) ([2]; 10^-3 M) | AChE Inhibition (%) ([2]; 10^-4 M) | MAO-A Inhibition (%) ([3]; 10^-3 M) | MAO-A Inhibition (%) ([3]; 10^-4 M) | MAO-B Inhibition (%) ([4]; 10^-3 M) | MAO-B Inhibition (%) ([4]; 10^-4 M) | COX-2 Inhibition (%) ([5]; 10^-3 M) | COX-2 Inhibition (%) ([5]; 10^-4 M) | COX-1 Inhibition (%) ([6]; 10^-3 M) | COX-1 Inhibition (%) ([6]; 10^-4 M) | further results
1 | O=C(N[C@H](CO)[C@H](O)c1ccc([N+](=O)[O-])cc1)C(Cl)Cl [Chloramphenicol, reference compound] |  |  |  |  |  |  |  |  |  |  | MIC50 [1]: 250 µg/mL (≈ 774 µM)
2 | Cc1ccc(-c2nc3ccccc3n2CCN2CCOCC2)cc1 [Compound 2a, 2-(4-Methylphenyl)-1-[2-(morpholin-4-yl)ethyl]-1H-benzimidazole] | 21.80% | 21.80% | 24.29% | 19.15% | 25.27% | 16.63% | 58.28% | 56.23% | 75.08% | 71.23% | IC50 [5]: 58.7 µM; COX-2 inhibition at the initial concentrations ([5]; 10^−3 M and 10^−4 M): more than 50%; inhibition at 10 µM ([5]; 10^−5 M): 43.7 ± 1.07%; inhibition at 1 µM ([5]; 10^−6 M, read-out: COX 2 Inhibition %): 40.3 ± 1.1%; inhibition at 0.1 µM ([5]; 10^−7 M): 38.3 ± 0.92%; inhibition at 0.01 µM ([5]; 10^−8 M): 36.2 ± 0.87%; inhibition at 0.001 µM ([5]; 10^−9 M): 32.4 ± 0.91%; IC50 [6]: 56.1 µM; COX-1 inhibition at the initial concentrations ([6]; 10^−3 M and 10^−4 M): more than 50%; inhibition at 10 µM ([6]; 10^−5 M): 47.4 ± 1.08%; inhibition at 1 µM ([6]; 10^−6 M): 40.1 ± 0.92%; inhibition at 0.1 µM ([6]; 10^−7 M): 35.7 ± 0.97%; inhibition at 0.01 µM ([6]; 10^−8 M): 30.5 ± 0.83%; inhibition at 0.001 µM ([6]; 10^−9 M): 28.8 ± 0.79%
3 | FC(F)(F)c1ccc(-c2nc3ccccc3n2CCN2CCOCC2)cc1 [Compound 2l, 2-(4-Trifluoromethylphenyl)-1-[2-(morpholin-4-yl)ethyl]-1H-benzimidazole] | 33.88% | 33.88% | 38.51% | 30.16% | 47.66% | 38.09% | 21.00% | 34.62% | 36.87% | 33.46% | 
4 | c1ccc(-c2ccc(-c3nc4ccccc4n3CCN3CCOCC3)cc2)cc1 [Compound 2o, 2-(1,1’-Biphenyl)-1-[2-(morpholin-4-yl)ethyl]-1H-benzimidazole] | 6.33% | 6.33% | 31.85% | 26.19% | 31.12% | 23.54% | 30.76% | 21.48% | 27.63% | 34.00% | 
